Square brackets hold non-standard residues; d marks the D form. Peptide text beside a SMILES is read from it. Orn = NCCC[C@H](N)C(=O)O
System: SARS-CoV-2
Assay: microbe, parasite or virus in culture
Details: Severe acute respiratory syndrome coronavirus 2, Vero C1008, 48 h

SMILES | IC50 | IC50 (read-out: pIC50 (converted))
Cc1cc(C(=O)NCCc2ccc(S(=O)(=O)NC(=O)NN3CCCCCC3)cc2)no1 [GLISOXEPIDE] | > 20 µM | > 20 µM
C[C@]1(C(=O)N(CCCC(=O)O)Cc2cccc(Cl)c2)CCN1C(=O)c1csc2ccccc12 [GLPG-0974] | > 20 µM | > 20 µM
O=C1O[C@H](CO)[C@@H](O)[C@H](O)[C@H]1O [GLUCONOLACTONE] | > 20 µM | > 20 µM
N[C@H]1C(O)O[C@H](CO)[C@@H](O)[C@@H]1O (stereo not given in full) [GLUCOSAMINE] | > 20 µM | > 20 µM
N[C@@H](C(=O)O)[C@@H](O)[C@H](O)[C@H](O)CO [GLUCOSAMINIC ACID] | > 20 µM | > 20 µM
N[C@@H](CCC(=O)O)C(=O)O [GLUTAMIC ACID] | > 20 µM | > 20 µM
NC(=O)CC[C@H](N)C(=O)O [GLUTAMINE] | > 20 µM | > 20 µM
N[C@@H](CCC(=O)N[C@@H](CS)C(=O)NCC(=O)O)C(=O)O [GLUTATHIONE] | > 20 µM | > 20 µM
CCC1(c2ccccc2)CCC(=O)NC1=O (stereo not given) [GLUTETHIMIDE] | > 20 µM | > 20 µM
COc1ccc(Cl)cc1C(=O)NCCc1ccc(S(=O)(=O)NC(=O)NC2CCCCC2)cc1 [GLYBURIDE] | > 20 µM | > 20 µM
OCC(O)CO [GLYCERIN] | > 20 µM | > 20 µM
CCCCCCCCCCCC(=O)OCC(O)CO (stereo not given) [GLYCEROL MONOLAURATE] | > 20 µM | > 20 µM
CCCCCCCCCCCCCCCC(=O)OCC(O)CO (stereo not given) [GLYCEROL MONOPALMITATE] | > 20 µM | > 20 µM
O=P(O)(O)OC(CO)CO [GLYCERYLPHOSPHATE] | > 20 µM | > 20 µM
NCC(=O)O [GLYCINE] | > 20 µM | > 20 µM
C[C@H](CCC(=O)NCC(=O)O)[C@H]1CC[C@H]2[C@@H]3[C@H](O)C[C@@H]4C[C@H](O)CC[C@]4(C)[C@H]3C[C@H](O)[C@]12C [GLYCOCHOLIC ACID] | > 20 µM | > 20 µM
O=C(O)CO [GLYCOLIC ACID] | > 20 µM | > 20 µM
C[N+]1(C)CCC(OC(=O)C(O)(c2ccccc2)C2CCCC2)C1 (stereo not given) [GLYCOPYRRONIUM] | > 20 µM | > 20 µM
CC1(C)[C@@H](O[C@H]2O[C@H](C(=O)O)[C@@H](O)[C@H](O)[C@H]2O[C@@H]2O[C@H](C(=O)O)[C@@H](O)[C@H](O)[C@H]2O)CC[C@]2(C)[C@H]3C(=O)C=C4[C@@H]5C[C@@](C)(C(=O)O)CC[C@]5(C)CC[C@@]4(C)[C@]3(C)CC[C@@H]12 [GLYCYRRHIZIN] | > 20 µM | > 20 µM
O=C(NC1CCCCC1)NS(=O)(=O)c1ccc2c(c1)CCC2 [GLYHEXAMIDE] | > 20 µM | > 20 µM
COCCOc1cnc(NS(=O)(=O)c2ccccc2)nc1 [GLYMIDINE] | > 20 µM | > 20 µM
Cc1ccc(S(=O)(=O)NC(=O)NC2CCCCCCC2)cc1 [GLYOCTAMIDE] | > 20 µM | > 20 µM
CC(C)C[C@H](NC(=O)CNC(=O)[C@H](Cc1ccc(O)cc1)NC(=O)[C@H](CO)NC(=O)[C@H](Cc1c[nH]c2ccccc12)NC(=O)[C@H](Cc1cnc[nH]1)NC(=O)[C@@H]1CCC(=O)N1)C(=O)N[C@@H](CCCNC(=N)N)C(=O)N1CCC[C@H]1C(=O)NCC(N)=O [GONADORELIN] | > 20 µM | > 20 µM
Cc1cc2c(C(C)C)c(O)c(O)c(C=O)c2c(O)c1-c1c(C)cc2c(C(C)C)c(O)c(O)c(C=O)c2c1O [GOSSYPOL] | > 20 µM | > 20 µM

SMILES | IC50 | IC50 (read-out: pIC50 (converted))
CC(C)C[C@@H]1NC(=O)[C@H](CCCN)NC(=O)[C@H](C(C)C)NC(=O)[C@@H]2CCCN2C(=O)[C@@H](Cc2ccccc2)NC(=O)[C@H](CC(C)C)NC(=O)[C@H](CCCN)NC(=O)[C@H](C(C)C)NC(=O)[C@@H]2CCCN2C(=O)[C@@H](Cc2ccccc2)NC1=O [GRAMICIDIN S] (cyclo(L[dF]PV[Orn]L[dF]PV[Orn])) | > 20 µM | > 20 µM
CN(C)Cc1c[nH]c2ccccc12 [GRAMINE] | > 20 µM | > 20 µM
CCOC(=O)C(COC(=O)Cc1ccc(NC(=O)c2ccccc2-c2ccc(C(F)(F)F)cc2)c(C(=O)N(C)C)c1)(C(=O)OCC)c1ccccc1 [GRANOTAPIDE] | > 20 µM | > 20 µM
CCc1nc2c(C)nc(C)cc2n1-c1ccc(CCNC(=O)NS(=O)(=O)c2ccc(C)cc2)cc1 [GRAPIPRANT] | > 20 µM | > 20 µM
Cn1c(-c2ccc3c(c2)OCO3)cc(=O)c2ccccc21 [GRAVEOLINE] | > 20 µM | > 20 µM
C=C[C@@H]1C[C@]1(NC(=O)[C@@H]1C[C@@H]2CN1C(=O)[C@H](C(C)(C)C)NC(=O)O[C@@H]1C[C@H]1CCCCCc1nc3ccc(OC)cc3nc1O2)C(=O)NS(=O)(=O)C1CC1 [GRAZOPREVIR ANHYDROUS] | > 20 µM | > 20 µM
COC1=CC(=O)C[C@@H](C)[C@]12Oc1c(Cl)c(OC)cc(OC)c1C2=O [GRISEOFULVIN] | > 20 µM | > 20 µM
CN1C(=O)[C@@H](NC(=O)c2n[nH]c(Cc3ccccc3)n2)COc2ccccc21 [GSK2982772] | > 20 µM | > 20 µM
CC(C)c1noc(N2CCC(COc3ccc(-c4ccc(S(C)(=O)=O)cc4)nc3)CC2)n1 [GSK-1292263] | > 20 µM | > 20 µM
CONC(=O)c1ccccc1Nc1cc(Nc2cc(C)nn2C(C)C)ncc1Cl [GSK-2256098] | > 20 µM | > 20 µM
Cc1c(Cn2c(C)nc3c(C(=O)O)cc(N4CCOCC4)cc32)cccc1C(F)(F)F [GSK-2636771] | > 20 µM | > 20 µM
COc1ccc(/C=C2\CCCN=C2c2cccnc2)c(OC)c1 [GTS-21] | > 20 µM | > 20 µM
COc1ccccc1O [GUAIACOL] | > 20 µM | > 20 µM
COc1ccccc1OCC(O)CO (stereo not given) [GUAIFENESIN] | > 20 µM | > 20 µM
N=C(N)N/N=C/c1c(Cl)cccc1Cl [GUANABENZ] | > 20 µM | > 20 µM
N=C(N)NCCN1CCCCCCC1 [GUANETHIDINE] | > 20 µM | > 20 µM
N=C(N)NC(=O)Cc1c(Cl)cccc1Cl [GUANFACINE] | > 20 µM | > 20 µM
N=C(N)N [GUANIDINE] | > 20 µM | > 20 µM
N=C(NO)N/N=C/c1c(Cl)cccc1Cl [GUANOXABENZ] | > 20 µM | > 20 µM
N=C(N)NCC1COc2ccccc2O1 (stereo not given) [GUANOXAN] | > 20 µM | > 20 µM
N=C(N)NCCCOc1ccccc1 [GUANOXYFEN] | > 20 µM | > 20 µM
C/C=C1\C(=O)C[C@H]2[C@@H]3CCC4=CC(=O)CC[C@]4(C)[C@H]3CC[C@]12C [GUGGULSTERONE] | > 20 µM | > 20 µM
N#CCC1CCN(c2nc(Nc3ccc(N4CCC(O)CC4)cc3)c3c(=O)[nH]ncc3n2)CC1 [GUSACITINIB] | > 20 µM | > 20 µM
Cc1cc(SCc2sc(-c3ccc(C(F)(F)F)cc3)nc2C)ccc1OCC(=O)O [GW501516] | > 20 µM | > 20 µM

SMILES | IC50 | IC50 (read-out: pIC50 (converted))
Cc1nc(-c2ccc(C(F)(F)F)cc2)sc1C(=O)NCc1ccc(OC(C)(C)C(=O)O)cc1 [GW590735] | > 20 µM | > 20 µM
O=C(NCC1CCOCC1)c1cnc(Nc2ccc(Cl)cc2Cl)nc1C(F)(F)F [GW842166X] | > 20 µM | > 20 µM
CCC(=O)NS(=O)(=O)c1ccc(NC(=O)COc2ccc(Cl)cc2C(=O)c2cc(Cl)cc(C#N)c2)c(C)c1 [GW-695634] | > 20 µM | > 20 µM
O=C1CN=C(c2ccccc2)c2cc(Cl)ccc2N1CC(F)(F)F [HALAZEPAM] | > 20 µM | > 20 µM
CC1(C)O[C@@H]2C[C@H]3[C@@H]4CCC5=CC(=O)CC[C@]5(C)[C@@]4(F)[C@@H](O)C[C@]3(C)[C@]2(C(=O)CCl)O1 [HALCINONIDE] | > 20 µM | > 20 µM
O=C(CC1NCCCC1O)Cn1cnc2cc(Br)c(Cl)cc2c1=O (stereo not given) [HALOFUGINONE] | > 20 µM | > 20 µM
CCCCCCCCCC(=O)OC1(c2ccc(Cl)cc2)CCN(CCCC(=O)c2ccc(F)cc2)CC1 [HALOPERIDOL DECANOATE] | > 20 µM | > 20 µM
O=C(CCCN1CCC(O)(c2ccc(Cl)cc2)CC1)c1ccc(F)cc1 [HALOPERIDOL] | > 20 µM | > 20 µM
Clc1cc(Cl)c(OCC#CI)cc1Cl [HALOPROGIN] | > 20 µM | > 20 µM
COc1ccc2c3c([nH]c2c1)C(C)=NCC3 [HARMALINE] | > 20 µM | > 20 µM
Cc1nccc2c1[nH]c1ccccc12 [HARMAN] | > 20 µM | > 20 µM
COc1ccc2c(c1)[nH]c1c(C)nccc12 [HARMINE] | > 20 µM | > 20 µM
CO[C@H](C)[C@](O)(C(=O)OCC1=CCN2CC[C@H](O)[C@@H]12)C(C)C [HELIOTRINE] | > 20 µM | > 20 µM
Oc1cc2c(cc1O)[C@@H]1c3ccc(O)c(O)c3OC[C@]1(O)C2 [HEMATOXYLIN] | > 20 µM | > 20 µM
C[N+]1(C)CCOC(O)(c2ccc(-c3ccc(C4(O)C[N+](C)(C)CCO4)cc3)cc2)C1 (stereo not given) [HEMICHOLINIUM-3] | > 20 µM | > 20 µM
CC(N)CCCC(C)(C)O (stereo not given) [HEPTAMINOL] | > 20 µM | > 20 µM
COc1ccc([C@@H]2CC(=O)c3c(O)cc(O)cc3O2)cc1O [HESPERETIN] | > 20 µM | > 20 µM
Oc1c(Cl)cc(Cl)c(Cl)c1Cc1c(O)c(Cl)cc(Cl)c1Cl [HEXACHLOROPHENE] | > 20 µM | > 20 µM
CC(=O)NCCCCCCNC(C)=O [HEXAMETHYLENEBISACETAMIDE] | > 20 µM | > 20 µM
CC[C@H](c1ccc(O)cc1)[C@@H](CC)c1ccc(O)cc1 [HEXESTROL] | > 20 µM | > 20 µM
CN1C(=O)NC(=O)C(C)(C2=CCCCC2)C1=O (stereo not given) [HEXOBARBITAL] | > 20 µM | > 20 µM
C[N+]1(C)CCN(CC(O)(c2ccccc2)C2CCCCC2)CC1 (stereo not given) [HEXOCYCLIUM] | > 20 µM | > 20 µM

From ChEMBL document CHEMBL4651402, “Screening of ~5500 FDA-approved drugs and clinical candidates for anti-SARS-CoV-2 activity” (2021)
